# Test results as given in patent US10765114B2, “4-amino-6-(pyridyl and 2-substitutedphenyl)-picolinates and 6-amino-2-(pyridyl and 2-substitutedphenyl)-pyrimidine-4-carboxylates and their use as herbicides” (Dow AgroSciences LLC, priority 2013, dated 2020).
# Test system: Key Broadleaf Weed and Crop Species
# Assay: Post-Emergent Test II (Table 5)
# Type: in vivo
# Conditions: Abutilon theophrasti, post-emergence, 336 h, ABUTH: velvetleaf (Abutilon theophrasti), application rate 70 (kg ai/ha; footnote: g ai/ha), read-out: Visual Growth Reduction (%) 14 Days After Application ABUTH
# Outline: (§1)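 Plants grown in a greenhouse (~15 h photoperiod, 23-29° C day) to first or second true leaf stage were sprayed post-emergence at 187 L/ha with compound in acetone/DMSO-based aqueous spray containing crop oil concentrate and surfactant, applied at a high rate plus ½× to 1/16× serial rates. Injury was scored visually 14 days later, 0-100% versus untreated plants.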
row,SMILES,pest or weed control at 70 g/ha [%]
1,"COC(=O)c1nc(-c2ccc(Cl)c(OC)c2C(F)F)cc(N)c1Cl [Compound 60, methyl 4-amino-3-chloro-6-(4-chloro-2-(difluoromethyl)-3-methoxyphenyl)picolinate]",95 to 100

# Same assay, conditions: Abutilon theophrasti, post-emergence, 336 h, ABUTH: velvetleaf (Abutilon theophrasti), application rate 140 (kg ai/ha; footnote: g ai/ha), read-out: Visual Growth Reduction (%) 14 Days After Application ABUTH
row,SMILES,pest or weed control at 140 g/ha [%]
1,"COC(=O)c1nc(-c2ccc(Cl)c(OC)c2C(F)F)cc(N)c1Cl [Compound 60, methyl 4-amino-3-chloro-6-(4-chloro-2-(difluoromethyl)-3-methoxyphenyl)picolinate]",95 to 100

# Same assay, conditions: Amaranthus retroflexus, post-emergence, 336 h, AMARE: redroot pigweed (Amaranthus retroflexus), application rate 70 (kg ai/ha; footnote: g ai/ha), read-out: Visual Growth Reduction (%) 14 Days After Application AMARE
row,SMILES,pest or weed control at 70 g/ha [%]
1,"COC(=O)c1nc(-c2ccc(Cl)c(OC)c2C(F)F)cc(N)c1Cl [Compound 60, methyl 4-amino-3-chloro-6-(4-chloro-2-(difluoromethyl)-3-methoxyphenyl)picolinate]",95 to 100

# Same assay, conditions: Amaranthus retroflexus, post-emergence, 336 h, AMARE: redroot pigweed (Amaranthus retroflexus), application rate 140 (kg ai/ha; footnote: g ai/ha), read-out: Visual Growth Reduction (%) 14 Days After Application AMARE
row,SMILES,pest or weed control at 140 g/ha [%]
1,"COC(=O)c1nc(-c2ccc(Cl)c(OC)c2C(F)F)cc(N)c1Cl [Compound 60, methyl 4-amino-3-chloro-6-(4-chloro-2-(difluoromethyl)-3-methoxyphenyl)picolinate]",95 to 100

# Same assay, conditions: Brassica napus, post-emergence, 336 h, BRSSS: oilseed rape, canola (Brassica napus), application rate 70 (kg ai/ha; footnote: g ai/ha), read-out: Visual Growth Reduction (%) 14 Days After Application BRSSS
row,SMILES,pest or weed control at 70 g/ha [%]
1,"COC(=O)c1nc(-c2ccc(Cl)c(OC)c2C(F)F)cc(N)c1Cl [Compound 60, methyl 4-amino-3-chloro-6-(4-chloro-2-(difluoromethyl)-3-methoxyphenyl)picolinate]",60 to 74

# Same assay, conditions: Brassica napus, post-emergence, 336 h, BRSSS: oilseed rape, canola (Brassica napus), application rate 140 (kg ai/ha; footnote: g ai/ha), read-out: Visual Growth Reduction (%) 14 Days After Application BRSSS
row,SMILES,pest or weed control at 140 g/ha [%]
1,"COC(=O)c1nc(-c2ccc(Cl)c(OC)c2C(F)F)cc(N)c1Cl [Compound 60, methyl 4-amino-3-chloro-6-(4-chloro-2-(difluoromethyl)-3-methoxyphenyl)picolinate]",75 to 84

# Same assay, conditions: Chenopodium album, post-emergence, 336 h, CHEAL: lambsquarters (Chenopodium album), application rate 70 (kg ai/ha; footnote: g ai/ha), read-out: Visual Growth Reduction (%) 14 Days After Application CHEAL
row,SMILES,pest or weed control at 70 g/ha [%]
1,"COC(=O)c1nc(-c2ccc(Cl)c(OC)c2C(F)F)cc(N)c1Cl [Compound 60, methyl 4-amino-3-chloro-6-(4-chloro-2-(difluoromethyl)-3-methoxyphenyl)picolinate]",95 to 100

# Same assay, conditions: Chenopodium album, post-emergence, 336 h, CHEAL: lambsquarters (Chenopodium album), application rate 140 (kg ai/ha; footnote: g ai/ha), read-out: Visual Growth Reduction (%) 14 Days After Application CHEAL
row,SMILES,pest or weed control at 140 g/ha [%]
1,"COC(=O)c1nc(-c2ccc(Cl)c(OC)c2C(F)F)cc(N)c1Cl [Compound 60, methyl 4-amino-3-chloro-6-(4-chloro-2-(difluoromethyl)-3-methoxyphenyl)picolinate]",95 to 100

# Same assay, conditions: Euphorbia heterophylla, post-emergence, 336 h, EPHHL: wild poinsettia (Euphorbia heterophylla), application rate 70 (kg ai/ha; footnote: g ai/ha), read-out: Visual Growth Reduction (%) 14 Days After Application EPHHL
row,SMILES,pest or weed control at 70 g/ha [%]
1,"COC(=O)c1nc(-c2ccc(Cl)c(OC)c2C(F)F)cc(N)c1Cl [Compound 60, methyl 4-amino-3-chloro-6-(4-chloro-2-(difluoromethyl)-3-methoxyphenyl)picolinate]",60 to 74

# Same assay, conditions: Euphorbia heterophylla, post-emergence, 336 h, EPHHL: wild poinsettia (Euphorbia heterophylla), application rate 140 (kg ai/ha; footnote: g ai/ha), read-out: Visual Growth Reduction (%) 14 Days After Application EPHHL
row,SMILES,pest or weed control at 140 g/ha [%]
1,"COC(=O)c1nc(-c2ccc(Cl)c(OC)c2C(F)F)cc(N)c1Cl [Compound 60, methyl 4-amino-3-chloro-6-(4-chloro-2-(difluoromethyl)-3-methoxyphenyl)picolinate]",60 to 74

# Same assay, conditions: Helianthus annuus, post-emergence, 336 h, HELAN: sunflower (Helianthus annuus), application rate 70 (kg ai/ha; footnote: g ai/ha), read-out: Visual Growth Reduction (%) 14 Days After Application HELAN
row,SMILES,pest or weed control at 70 g/ha [%]
1,"COC(=O)c1nc(-c2ccc(Cl)c(OC)c2C(F)F)cc(N)c1Cl [Compound 60, methyl 4-amino-3-chloro-6-(4-chloro-2-(difluoromethyl)-3-methoxyphenyl)picolinate]",85 to 94

# Same assay, conditions: Helianthus annuus, post-emergence, 336 h, HELAN: sunflower (Helianthus annuus), application rate 140 (kg ai/ha; footnote: g ai/ha), read-out: Visual Growth Reduction (%) 14 Days After Application HELAN
row,SMILES,pest or weed control at 140 g/ha [%]
1,"COC(=O)c1nc(-c2ccc(Cl)c(OC)c2C(F)F)cc(N)c1Cl [Compound 60, methyl 4-amino-3-chloro-6-(4-chloro-2-(difluoromethyl)-3-methoxyphenyl)picolinate]",85 to 94

# Same assay, conditions: Viola tricolor, post-emergence, 336 h, VIOTR: wild pansy (Viola tricolor), application rate 70 (kg ai/ha; footnote: g ai/ha), read-out: Visual Growth Reduction (%) 14 Days After Application VIOTR
row,SMILES,pest or weed control at 70 g/ha [%]
1,"COC(=O)c1nc(-c2ccc(Cl)c(OC)c2C(F)F)cc(N)c1Cl [Compound 60, methyl 4-amino-3-chloro-6-(4-chloro-2-(difluoromethyl)-3-methoxyphenyl)picolinate]",30 to 44

# Same assay, conditions: Viola tricolor, post-emergence, 336 h, VIOTR: wild pansy (Viola tricolor), application rate 140 (kg ai/ha; footnote: g ai/ha), read-out: Visual Growth Reduction (%) 14 Days After Application VIOTR
row,SMILES,pest or weed control at 140 g/ha [%]
1,"COC(=O)c1nc(-c2ccc(Cl)c(OC)c2C(F)F)cc(N)c1Cl [Compound 60, methyl 4-amino-3-chloro-6-(4-chloro-2-(difluoromethyl)-3-methoxyphenyl)picolinate]",30 to 44

# Test system: Key Grass and Sedge Weeds as well as Grass Crops
# Assay: Post-Emergent Test II (Table 6)
# Type: in vivo
# Conditions: post-emergence, 336 h, CYPSS, 70 g ai/ha, 14 days after application, read-out: Visual Growth Reduction (%) 14 Days After Application CYPSS
# Outline: as §1
row,SMILES,pest or weed control at 70 g/ha [%]
1,"COC(=O)c1nc(-c2ccc(Cl)c(OC)c2C(F)F)cc(N)c1Cl [Compound 60, methyl 4-amino-3-chloro-6-(4-chloro-2-(difluoromethyl)-3-methoxyphenyl)picolinate]",30 to 44
